Experimental data reported in BindingDB's records for patent US20250236609 (Deciphera Pharmaceuticals, 2025).
pIC50: −log10 of the molar value.

Molecular target: Phosphatidylinositol 3-kinase catalytic subunit type 3 (Homo sapiens, UniProt Q8NEB9)
Test: Biochemical Assay for VPS34
Protocol: Activity of VPS34 kinase was determined using an ADP-Glo kinase activity assay (Promega Corp). Assays were conducted in 384-well plates (5 μL assay volume) using 25 nM VPS34 (ThermoFisher Scientific), […] PI:3PS Lipid Kinase Substrate (Promega Corp.), and 1 mM ATP in kinase buffer. Inhibition of VPS34 was measured by adding serial diluted test compound (final assay concentration of 0.1% DMSO) followed by a 1-hour incubation at 37° C. ADP-Glo reagent was then added […] followed by a 40 min incubation at rt. Kinase detection reagent was then added […] and followed by a 60 min incubation at rt. Luminescence was then detected. The RLU at each compound concentration of was converted to percent inhibition using controls (i.e., reaction with no test compound and reaction with a known inhibitor) and IC50 values were calculated by fitting a four-parameter sigmoidal curve to the data using GeneData Screener software.

Sequence of Phosphatidylinositol 3-kinase catalytic subunit type 3 (Q8NEB9 whole entry): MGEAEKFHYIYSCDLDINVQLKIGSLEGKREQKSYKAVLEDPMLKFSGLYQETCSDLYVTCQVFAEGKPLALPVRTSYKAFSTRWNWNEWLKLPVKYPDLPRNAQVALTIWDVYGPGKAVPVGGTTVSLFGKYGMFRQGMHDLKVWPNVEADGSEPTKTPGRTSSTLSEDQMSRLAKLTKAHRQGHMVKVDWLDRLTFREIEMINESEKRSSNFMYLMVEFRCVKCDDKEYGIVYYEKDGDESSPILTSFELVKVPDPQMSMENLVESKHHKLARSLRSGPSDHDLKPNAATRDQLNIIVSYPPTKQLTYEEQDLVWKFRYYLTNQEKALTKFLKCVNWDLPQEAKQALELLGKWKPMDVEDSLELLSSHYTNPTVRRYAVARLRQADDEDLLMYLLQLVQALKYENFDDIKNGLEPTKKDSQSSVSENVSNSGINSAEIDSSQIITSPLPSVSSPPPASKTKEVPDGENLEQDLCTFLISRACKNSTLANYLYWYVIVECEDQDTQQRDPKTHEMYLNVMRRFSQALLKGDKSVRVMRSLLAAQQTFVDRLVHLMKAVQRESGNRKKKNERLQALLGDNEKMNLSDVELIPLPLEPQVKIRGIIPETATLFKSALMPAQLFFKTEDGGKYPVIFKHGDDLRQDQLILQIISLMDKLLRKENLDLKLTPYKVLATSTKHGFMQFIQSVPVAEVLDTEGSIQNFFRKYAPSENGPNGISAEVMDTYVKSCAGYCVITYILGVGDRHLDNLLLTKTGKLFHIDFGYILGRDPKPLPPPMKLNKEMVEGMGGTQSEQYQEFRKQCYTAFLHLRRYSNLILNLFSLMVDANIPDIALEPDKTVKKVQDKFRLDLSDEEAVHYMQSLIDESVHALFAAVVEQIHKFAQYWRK

pIC50: > 7.00
Structure (SMILES): COC(=O)Nc1cc(-c2cc(-c3cnccc3C(F)(F)F)[nH]c(=O)c2)c(C)cn1 [US20250236609, Example 4]
